One data set deals with T1, estrogen receptor (Rattus norvegicus, UniProt P06211).
T1 construct: Estrogen receptor-rich cytosol was obtained from the uteri; from tissue; host or cells: uterus of immature Sprague-Dawley rats (cytosol, 100,000 x g supernatant, DCC-treated)
T1 sequence (P06211 1-600): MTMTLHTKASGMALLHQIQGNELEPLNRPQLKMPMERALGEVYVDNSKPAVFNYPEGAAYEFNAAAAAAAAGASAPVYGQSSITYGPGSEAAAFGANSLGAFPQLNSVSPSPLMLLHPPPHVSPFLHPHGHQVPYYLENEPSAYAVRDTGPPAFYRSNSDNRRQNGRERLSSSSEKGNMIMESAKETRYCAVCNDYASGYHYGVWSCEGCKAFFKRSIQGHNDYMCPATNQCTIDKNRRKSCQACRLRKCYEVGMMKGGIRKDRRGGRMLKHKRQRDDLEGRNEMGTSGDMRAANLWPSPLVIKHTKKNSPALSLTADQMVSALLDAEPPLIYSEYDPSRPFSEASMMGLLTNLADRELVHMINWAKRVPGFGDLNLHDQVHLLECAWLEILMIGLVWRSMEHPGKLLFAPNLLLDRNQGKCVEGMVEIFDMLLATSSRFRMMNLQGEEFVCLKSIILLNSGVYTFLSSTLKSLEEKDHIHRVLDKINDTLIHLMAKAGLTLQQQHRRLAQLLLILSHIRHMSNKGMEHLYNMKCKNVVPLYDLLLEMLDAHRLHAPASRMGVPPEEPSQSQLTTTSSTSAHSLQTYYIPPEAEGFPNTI
Description: Displacement of tritium-labelled estradiol from estrogen receptor-rich uterine cytosol. The following applies: mean ± SEM. It is filed as binding. How it is done:
EXAMPLE 16—Determination of the binding affinity of compounds for estrogen receptor
Binding affinity (Ki value) for the estrogen receptor is measured by the ability of the compound to displace tritium-labelled estradiol from the receptor site.
Procedure Estrogen receptor-rich cytosol was obtained from the uteri of humanely sacrificed Sprague-Dawley immature rats (100-150 g mass). Briefly, the uteri were homogenized in 0.01 M sodium phosphate buffer, pH 7.3, containing 0.15 M NaCl, 0.1% gelatin and 0.01% sodium azide. The homogenate was then centrifuged at 100,000×g, […]. The cytosol thus isolated was pretreated with dextran coated charcoal (DCC on ice) and re-isolated using centrifugation, before freezing at−20° C. for later use. The protein concentration of cytosol samples was determined using a standard Bradford protein assay and an appropriate protein concentration range (150 μg protein in a total volume of 0.14 ml) for assay prepared. The required amounts of tritium-labeled (hot) and non-labeled (cold) estradiol were calculated using standard saturation curve techniques. A fresh buffer solution was prepared (Tris[tris(hydroxymethyl)-aminomethane]buffer-10 mM, pH 7.4, containing 1.5 mM EDTA and 3 mM sodium azide). Displacement testing of the compounds was facilitated through the incubation of a buffered solution of a known concentration of the test compound with hot estradiol solution (specific activity 157 Ci/mmol-final conc. 5 nM/ tube), followed by the addition of estrogen receptor-rich cytosol (150 μg protein). Total and non-specific binding control assays were determined in the absence and presence of 14 μl of a 0.2 mM cold estradiol solution respectively, properly corrected for the presence of ethanol in the test (displacement) samples. Samples were vortexed to ensure homogeneity and refrigerated at […] for 16-20 h. After this time the samples were retreated with DCC on ice and centrifuged for ten min at 3500×g. A 170 μl sample was pipetted from each vial and diluted with 10 ml scintillation fluid (Ecoscint). […] The samples thus prepared were counted for radioactivity by liquid scintillation counting. Binding values were obtained as counts per minute (cpm) and were converted to disintegrations per minute (dpm) and computationally analysed using sigmoidal curve fitting programs EBDA and LIGAND [14] to fit the displacement curves and to calculate binding affinity values (Ki) for the test compounds.
The following table illustrates the relative binding affinity values measured for selected compounds, based on their ability to displace radiolabelled estradiol from estrogen receptor-rich cytosol. Values are expressed as the mean determined±SEM.

The subject of data set [1] is human breast tumor MCF-7 cell line. Description: MTT antiproliferative assay on human MCF-7 cell line. It is filed as cell-based. Particulars: for IC50: MTT inhibition of proliferation, mean of triplicate determinations; for % Cell viability: 72 h, MTT, MCF-7. The text has this: EXAMPLE 14—Determination of the antiproliferative effects on human MCF-7 cell lines.
MTT is a yellow tetrazolium salt which is taken up only by metabolically active cells and subsequently cleaved by mitochondrial dehydrogenases to yield a purple crystalline formazan dye. On solubilisation this purple color may be read spectrophotometrically at 570 nm. The absorbance measured at this wavelength is directly proportional to the amount of viable cells present.
Procedure : The human breast tumor MCF-7 cell line was cultured in Eagles minimum essential medium in a 5% CO2 atmosphere with 10% fetal calf serum. The medium was supplemented with 1% non-essential amino acids. The cells were trypsinized and seeded at a density of 1.5×10^4 into a 96-well plate and incubated at 37° C., 5% CO2 atmosphere for 24 h. […] Control wells contained the equivalent volume of the vehicle ethanol (1% v/v). The culture medium was then removed and the cells washed with 100 μl PBS and 50 μl MTT added, to reach a final concentration of 1 mg/ml MTT added. The cells were incubated for 2 h in darkness at […]. At this point solubilisation was begun through the addition of 200 μl DMSO and the cells maintained at room temperature in darkness for 20 min to ensure thorough color diffusion before reading the absorbance. The absorbance value of control cells (no added compound) was set to 100% cell viability. Graphs of absorbance versus cell density per well were prepared to assess cell viability.
On the technique in general: Tetrazolium dyes change colour on reduction, which living cells bring about.

The subject of data set [2] is human MCF-7 breast cancer cells. Description: LDH release cytotoxicity assay on human MCF-7 cells. The class given is cell-based. Particulars: 72 h. The text has this:
EXAMPLE 15—Determination of the cytotoxic effects on human MCF-7 cell lines.
Lactate dehydrogenase (LDH) is a cytosolic enzyme released upon cell lysis (death). Through the use of a commercial LDH assay kit, released LDH converts a substrate tetrazolium salt into a soluble red formazan product. The absorbance of this dye can be measured directly at 490 nm, the color formed is proportional to the number of lysed cells, and as such the extent of cytotoxic activity for the compound added may be assessed.
Procedure : As with the cell proliferation assay, human MCF-7 breast cancer cells were plated at a density of 1.5×10^4 per well in a 96-well plate, then incubated at 37° C., 5% CO2 atmosphere for 24 h. The cells were treated with the compound of choice at varying concentrations (1nM-100 μM), then incubated for a further 72 h. Following incubation 50 μl aliquots of medium were removed to a fresh 96-well plate. A 50 μl per well LDH substrate mixture was added and the plate left in darkness at room temperature for 30 minutes. Stop solution (50 μl) was added to all wells before reading the absorbance at 490 nm. A control of 100% lysis was determined for a set of untreated cells which were lysed through the addition of 20 μl lysis solution to the media 45 min prior to harvesting.
A general note: LDH leaks from cells whose membrane has failed.

Where [3] appears, read: Homo sapiens, MCF7, read-out: IC50 Range.
[4] abbreviates: Homo sapiens, MCF7, read-out: IC50.

From patent publication US20020161007A1, “Non-steroidal modulators of estrogen receptors” (priority 2001, published 2002) come the findings set out here.

By Ki is commonly meant the dissociation constant of the complex between target and ligand, obtained from inhibition or displacement. Low values mean higher affinity, high ones lower affinity. In general, IC50 refers to the concentration needed to halve the response being measured.

SMILES strings stand for the structures. Read-outs that look alike come from different tables or passages of the source.

`CCC(Cc1ccccc1)=C(c1ccccc1)c1ccc(OCCN(C)C)cc1` (racemic) [Compound 1, 2-Benzyl-1-phenyl-1-[4-(dimethylaminoethoxy)phenyl]but-1-ene] yielded a Ki on estrogen receptor of 0.459 ± 0.23 µM. Besides, the IC50 in data set [1] (setting [3]) was in the range of 10 to 15 µM.

Regarding `CCC(Cc1ccccc1)=C(c1ccccc1)c1ccc(OCCN2CCCCC2)cc1` [Compound 4, 2-Benzyl-1-phenyl-1-[4-(pipyridinylethoxy)phenyl]but-1-ene], the “% Cytotoxicity” value is on record as 3.67% in data set [2] (1 nM), 34.76% in data set [2] (10 μM), 49.44% in data set [2] (50 μM) and 49.14% in data set [2] (100 μM). The “% Cell viability” value in data set [1] (1 nM) stood at 103.8%; in data set [1] (10 nM), 100.3%; in data set [1] (100 nM) it was 91.14%; in data set [1] (1 μM), 85.13%; in data set [1] (10 μM), 29.11%; in data set [1] (50 μM), 1.58%. For the same compound, the “% Cell viability” value in data set [1] (100 μM) was 1.27%. Further, the IC50 in data set [1] (read-out: IC50 Range) fell in the range of 1 to 5 µM.

As to `CCC(Cc1ccc(O)cc1)=C(c1ccccc1)c1ccc(NCCOC)cc1` [Compound 41, 4-{2-Ethyl-3-[4-(2-methoxyethylamino)-phenyl]-3-phenylallyl}-phenol], in data set [1] (setting [4]), the IC50 came out at 32.4 µM.

Take `CCC(Cc1ccccc1)=C(c1ccccc1)c1ccc(NCCCOC)cc1` [Compound 30, [4-(2-Benzyl-1-phenylbut-1-enyl)-phenyl]-(3-methoxypropyl)-amine]: in data set [1] (setting [4]), the IC50 came out at 35.4 µM.

As to `CCC(Cc1ccccc1)=C(c1ccccc1)c1ccc(OCCN(CC)CC)cc1` [Compound 2, 2-Benzyl-1-phenyl-1-[4-(diethylaminoethoxy)phenyl]but-1-ene], the IC50 in data set [1] (setting [3]) is 10 to 15 µM.

Turning to `CCC(Cc1ccc(OC)cc1)=C(c1ccccc1)c1ccc(NCCOC)cc1` [Compound 39, {4-[2-(4-methoxybenzyl)-1-phenylbut-1-enyl]-phenyl}-(2-methoxyethyl)-amine], the IC50 in data set [1] (setting [4]) came to 49.5 µM.

On to `CCC(Cc1ccccc1)=C(c1ccccc1)c1ccc(NCCN(C)C)cc1` [Compound 42, N′-[4-(2-Benzyl-1-phenylbut-1-enyl)-phenyl]-N,N-dimethylethane-1,2-diamine], for which the half-inhibitory concentration (IC50) in data set [1] (setting [4]) is 13.7 µM.

Turning to `CCC(Cc1ccccc1)=C(c1ccc(NCCOC)cc1)c1ccc(OC)cc1` [Compound 37, {4-[2-Benzyl-1-(4-methoxyphenyl)-but-1-enyl]-phenyl}-(2-methoxyethyl)-amine], the IC50 in data set [1] (setting [4]) was 34.4 µM.

As to `CCC(Cc1ccccc1)=C(c1ccc(OCCN2CCCC2)cc1)c1ccc(OC(=O)C(C)(C)C)cc1` [Compound 21], the IC50 in data set [1] (read-out: IC50 Range) lay within 1 to 10 µM.

With `CCC(=C(Cc1ccccc1)c1ccc(OCCN(CC)CC)cc1)c1ccccc1` [Compound 7, 1-Benzyl-2-phenyl-[1-(4-diethylaminoethoxy)phenyl]-but-1-ene], the IC50 in data set [1] (read-out: IC50 Range) fell in the range of 15 to 20 µM.

Turning to `CCC(Cc1ccccc1)=C(c1ccc(O)cc1)c1ccc(OCCN(C)C)cc1` [Compound 24, 4-{2-Benzyl-1-[4-(2-dimethylamino-ethoxy)-phenyl]-but-1-enyl}-phenol], the concentration for half-maximal inhibition (IC50) in data set [1] (setting [3]) fell in the range of 0.01 to 0.1 µM.

As to `CCC(=C(Cc1ccccc1)c1ccccc1)c1ccc(OCCN2CCCC2)cc1` [Compound 13, 1-Benzyl-1-phenyl-2-[(4-pyrrolidinylethoxy)phenyl]but-1-ene], in data set [1] (read-out: IC50 Range), the IC50 was 20 to 25 µM.

Regarding `CC/C(=C(/Cc1ccc(OCCN(C)C)cc1)c1ccccc1)c1ccccc1` [Compound 16], in data set [1] (setting [3]), the half-maximal inhibitory concentration (IC50) lay within 25 to 30 µM.

As for `CCC(=C(Cc1ccc(OCCN2CCOCC2)cc1)c1ccccc1)c1ccccc1` [Compound 20], the inhibition constant Ki on estrogen receptor came out at 2.48 ± 0.45 µM. In data set [1] (setting [3]), the IC50 lay in the range of 15 to 20 µM.

As for `CC/C(=C(\Cc1ccccc1)c1ccccc1)c1ccc(OCCN(C)C)cc1` [Compound 11, 1-Benzyl-1-phenyl-2-[(4-dimethylaminoethoxy)phenyl]but-1-ene], the half-maximal inhibitory concentration (IC50) in data set [1] (setting [3]) lay within 115 to 120 µM.

With `CCC(Cc1ccccc1)=C(c1ccccc1)c1ccc(NCCOC)cc1` [Compound 27, [4-(2-Benzyl-1-phenylbut-1-enyl)-phenyl]-(2-methoxyethyl)-amine], the IC50 in data set [1] (setting [4]) turned out to be 33.7 µM.

Regarding `CCOCCCNc1ccc(/C(=C(/CC)Cc2ccccc2)c2ccccc2)cc1` [Compound 31, [4-(2-benzyl-1-phenylbut-1-enyl)-phenyl]-(3-ethoxypropyl)-amine], the IC50 in data set [1] (setting [4]) was 14.1 µM.

`CC/C(=C(\Cc1ccccc1)c1ccc(OCCN(C)C)cc1)c1ccccc1` [Compound 6, 1-Benzyl-2-phenyl-[(4-dimethyleaminoethoxy)phenyl]but-1-ene]: the Ki on estrogen receptor came to 0.503 ± 0.098 µM. Also, the IC50 in data set [1] (setting [3]) was in the range of 20 to 25 µM.

For `CCC(=C(Cc1ccccc1)c1ccccc1)c1ccc(OCCN(CC)CC)cc1` [Compound 12, 1-Benzyl-1-phenyl-2-[(4-diethylaminoethoxy)phenyl]but-1-ene], in data set [1] (read-out: IC50 Range), the IC50 fell in the range of 20 to 25 µM.

As to `CC/C(=C(\Cc1ccccc1)c1ccc(OCCN2CCCCC2)cc1)c1ccccc1` [Compound 9, 1-Benzyl-2-phenyl-[1-(4-pipyridinylethoxy)phenyl]-but-1-ene], the IC50 in data set [1] (setting [3]) is 70 to 80 µM.

`CCC(Cc1ccccc1)=C(c1ccccc1)c1ccc(OCCN2CCCC2)cc1` [Compound 3, 2-Benzyl-1-phenyl-1-[4-(pyrrolidinylethoxy)phenyl]but-1-ene]: the concentration for half-maximal inhibition (IC50) in data set [1] (read-out: IC50 Range) was in the range of 1 to 5 µM.
